Legend:
Assay type in all cases: in vivo
[1] = tested on: Echinochloa crus-galli (ECHCG); assay: Pre-emergence herbicidal activity, Echinochloa crus-galli; conditions: evaluated after 13 days; for ECHCG damage score (0-5): Test 1b
Outline: (§1)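 Seeds sown in standard soil in pots, grown one day in a glasshouse (24/16 °C day/night, 14 h light, 65% humidity), then sprayed pre-emergence with compound in acetone/water (50:50) containing 0.5% Tween 20. Plants were scored after 13 days on a 0–5 scale (5 = total damage, 0 = none).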

[2] = tested on: Lolium perenne (LOLPE); assay: Pre-emergence herbicidal activity, Lolium perenne; conditions: evaluated after 13 days; for LOLPE damage score (0-5): Test 1b
Outline: as §1

[3] = tested on: Zea Mays (ZEAMX); assay: Pre-emergence herbicidal activity, Zea Mays; set-up: key: 5=total damage to plant; 0=no damage to plant; conditions: 1000 g/ha, evaluated after 13 days, Test 1b
Description: (§2) Seeds of a variety of test species were sown in standard soil in pots: Triticum aestivium (TRZAW), Avena fatua (AVEFA), Alopecurus myosuroides (ALOMY), Echinochloa crus-galli (ECHCG), Lolium perenne (LOLPE), Zea Mays (ZEAMX), Abutilon theophrasti (ABUTH), Amaranthus retroflexus (AMARE) and Setaria faberi (SETFA). After cultivation for one day (pre-emergence) under controlled conditions in a glasshouse (at 24/16° C., day/night; 14 hours light; 65% humidity), the plants were sprayed with an aqueous spray solution derived from the formulation of the technical active ingredient in acetone/water (50:50) solution containing 0.5% Tween 20 (polyoxyethelyene sorbitan monolaurate, CAS RN 9005-64-5). The test plants were then grown in a glasshouse under controlled conditions (at 24/16°, day/night; 14 hours light; 65% humidity) and watered twice daily. After 13 days, the test was evaluated (5=total damage to plant; 0=no damage to plant).

[4] = tested on: Abutilon theophrasti (ABUTH); assay: Pre-emergence herbicidal activity, Abutilon theophrasti; set-up: key: 5=total damage to plant; 0=no damage to plant; conditions: 1000 g/ha, evaluated after 13 days, Test 1b
Description: as §2

[5] = tested on: Amaranthus retroflexus (AMARE); assay: Pre-emergence herbicidal activity, Amaranthus retroflexus; set-up: key: 5=total damage to plant; 0=no damage to plant; conditions: 1000 g/ha, evaluated after 13 days, Test 1b
Description: as §2

[6] = tested on: Setaria faberi (SETFA); assay: Pre-emergence herbicidal activity, Setaria faberi; set-up: key: 5=total damage to plant; 0=no damage to plant; conditions: evaluated after 13 days; for SETFA damage score (0-5): Test 1b
Outline: as §1

[7] = tested on: Echinochloa crus-galli (ECHCG); assay: Post-emergence herbicidal activity, Echinochloa crus-galli; set-up: key: 5=total damage to plant; 0=no damage to plant; conditions: evaluated after 13 days; for ECHCG damage score (0-5): Test 2b
Outline: (§3)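 Post-em, 8 d plants, pots; acetone:water 1:1 + 0.5% Tween 20 spray; 24/16 °C, 14 h photoperiod, 65% RH; 13 d readout, 0–5 phytotoxicity scale.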

[8] = tested on: Lolium perenne (LOLPE); assay: Post-emergence herbicidal activity, Lolium perenne; conditions: evaluated after 13 days; for LOLPE damage score (0-5): Test 2b
Outline: as §3

[9] = tested on: Zea Mays (ZEAMX); assay: Post-emergence herbicidal activity, Zea Mays; set-up: key: 5=total damage to plant; 0=no damage to plant; conditions: 1000 g/ha, evaluated after 13 days, Test 2b
Description: (§4) Seeds of a variety of test species were sown in standard soil in pots: Triticum aestivium (TRZAW), Avena fatua (AVEFA), Alopecurus myosuroides (ALOMY), Echinochloa crus-galli (ECHCG), Lolium perenne (LOLPE), Zea Mays (ZEAMX), Abutilon theophrasti (ABUTH), Amaranthus retroflexus (AMARE) and Setaria faberi (SETFA). After 8 days cultivation (post-emergence) under controlled conditions in a glasshouse (at 24/16° C., day/night; 14 hours light; 65% humidity), the plants were sprayed with an aqueous spray solution derived from the formulation of the technical active ingredient in acetone/water (50:50) solution containing 0.5% Tween 20 (polyoxyethelyene sorbitan monolaurate, CAS RN 9005-64-5). The test plants were then grown in a glasshouse under controlled conditions (at 24/16° C., day/night; 14 hours light; 65% humidity) and watered twice daily. After 13 days, the test was evaluated (5=total damage to plant; 0=no damage to plant).

[10] = tested on: Abutilon theophrasti (ABUTH); assay: Post-emergence herbicidal activity, Abutilon theophrasti; set-up: key: 5=total damage to plant; 0=no damage to plant; conditions: 1000 g/ha, evaluated after 13 days, Test 2b
Description: as §4

[11] = tested on: Amaranthus retroflexus (AMARE); assay: Post-emergence herbicidal activity, Amaranthus retroflexus; set-up: key: 5=total damage to plant; 0=no damage to plant; conditions: 1000 g/ha, evaluated after 13 days, Test 2b
Description: as §4

[12] = tested on: Setaria faberi (SETFA); assay: Post-emergence herbicidal activity, Setaria faberi; set-up: key: 5=total damage to plant; 0=no damage to plant; conditions: evaluated after 13 days; for SETFA damage score (0-5): Test 2b
Outline: as §3

[13] = tested on: Triticum aestivium (TRZAW); assay: Pre-emergence herbicidal activity, Triticum aestivium; set-up: key: 5=total damage to plant; 0=no damage to plant; conditions: evaluated after 13 days
Outline: as §1

[14] = tested on: Avena fatua (AVEFA); assay: Pre-emergence herbicidal activity, Avena fatua; conditions: evaluated after 13 days
Outline: as §1

[15] = tested on: Alopecurus myosuroides (ALOMY); assay: Pre-emergence herbicidal activity, Alopecurus myosuroides; set-up: key: 5=total damage to plant; 0=no damage to plant; conditions: evaluated after 13 days
Outline: as §1

[16] = tested on: Triticum aestivium (TRZAW); assay: Post-emergence herbicidal activity, Triticum aestivium; set-up: key: 5=total damage to plant; 0=no damage to plant; conditions: evaluated after 13 days
Outline: as §3

[17] = tested on: Avena fatua (AVEFA); assay: Post-emergence herbicidal activity, Avena fatua; conditions: evaluated after 13 days
Outline: as §3

[18] = tested on: Alopecurus myosuroides (ALOMY); assay: Post-emergence herbicidal activity, Alopecurus myosuroides; set-up: key: 5=total damage to plant; 0=no damage to plant; conditions: evaluated after 13 days
Outline: as §3

| SMILES | ECHCG damage score (0-5) ([1]; 1000 g/ha) | LOLPE damage score (0-5) ([2]; 1000 g/ha) | ZEAMX damage score (0-5) [3] | ABUTH damage score (0-5) [4] | AMARE damage score (0-5) [5] | SETFA damage score (0-5) ([6]; 1000 g/ha) | ECHCG damage score (0-5) ([7]; 1000 g/ha) | LOLPE damage score (0-5) ([8]; 1000 g/ha) | ZEAMX damage score (0-5) [9] | ABUTH damage score (0-5) [10] | AMARE damage score (0-5) [11] | SETFA damage score (0-5) ([12]; 1000 g/ha) | also measured |
| --- | --- | --- | --- | --- | --- | --- | --- | --- | --- | --- | --- | --- | --- |
| CN(C(=O)OC(C)(C)C)c1ccc(-c2cccnc2)nc1C(F)(F)F [Compound B22] | 3 | 1 | 0 | 1 | 1 | 4 | 4 | 3 | 2 | 0 | 0 | 4 | – |
| CC(C)OC(=O)Nc1ccc(-c2cncc(F)c2)nc1C(F)(F)F [Compound B16, isopropyl N-[6-(5-fluoro-3-pyridyl)-2-(trifluoromethyl)-3-pyridyl]carbamate] | 3 | 1 | 5 | 0 | 0 | 4 | 4 | 3 | 5 | 0 | 0 | 5 | – |
| CC(C)(C)OC(=O)Nc1ccc(-c2cncnc2)nc1Cl [Compound B27] | 4 | 1 | 2 | 0 | 0 | 4 | 4 | 2 | 3 | 2 | 2 | 5 | – |
| Cc1nc(-c2cncc(F)c2)ccc1NC(=O)OC(C)(C)C [Compound B19] | 4 | 3 | 5 | 1 | 1 | 4 | 4 | 4 | 5 | 1 | 2 | 5 | – |
| O=C(Nc1ccc(-c2cncc(F)c2)nc1C(F)(F)F)OC1CCOCC1 [Compound B93] | – | – | – | – | – | – | – | – | – | – | – | – | Control of TRAZW after pre-emergence application (score 0-5) ([13]; 250 g/ha): 0; Control of AVEFA after pre-emergence application (score 0-5) ([14]; 250 g/ha): 2; Control of ALOMY after pre-emergence application (score 0-5) ([15]; 250 g/ha): 0; Control of ECHCG after pre-emergence application (score 0-5) ([1]; 250 g/ha): 4; Control of LOLPE after pre-emergence application (score 0-5) ([2]; 250 g/ha): 1; Control of SETFA after pre-emergence application (score 0-5) ([6]; 250 g/ha): 5; Control of TRAZW after post-emergence application (score 0-5) ([16]; 250 g/ha): 0; Control of AVEFA after post-emergence application (score 0-5) ([17]; 250 g/ha): 4; Control of ALOMY after post-emergence application (score 0-5) ([18]; 250 g/ha): 0; Control of ECHCG after post-emergence application (score 0-5) ([7]; 250 g/ha): 5; Control of LOLPE after post-emergence application (score 0-5) ([8]; 250 g/ha): 3; Control of SETFA after post-emergence application (score 0-5) ([12]; 250 g/ha): 5 |
| O=C(Nc1ccc(-c2cncc(F)c2)nc1C(F)(F)F)N1CCSCC1 [Compound B54] | – | – | – | – | – | – | – | – | – | – | – | – | Control of TRAZW after pre-emergence application (score 0-5) ([13]; 1000 g/ha): 0; Control of AVEFA after pre-emergence application (score 0-5) ([14]; 1000 g/ha): 2; Control of ALOMY after pre-emergence application (score 0-5) ([15]; 1000 g/ha): 0; Control of ECHCG after pre-emergence application (score 0-5) ([1]; 1000 g/ha): 3; Control of LOLPE after pre-emergence application (score 0-5) ([2]; 1000 g/ha): 1; Control of SETFA after pre-emergence application (score 0-5) ([6]; 1000 g/ha): 3; Control of TRAZW after post-emergence application (score 0-5) ([16]; 1000 g/ha): 1; Control of AVEFA after post-emergence application (score 0-5) ([17]; 1000 g/ha): 4; Control of ALOMY after post-emergence application (score 0-5) ([18]; 1000 g/ha): 1; Control of ECHCG after post-emergence application (score 0-5) ([7]; 1000 g/ha): 4; Control of LOLPE after post-emergence application (score 0-5) ([8]; 1000 g/ha): 3; Control of SETFA after post-emergence application (score 0-5) ([12]; 1000 g/ha): 4 |

Source: patent US20210127673A1, “HERBICIDES” (SYNGENTA PARTICIPATIONS AG, priority 2016, published 2021)
